# Measurements as given in ChEMBL document CHEMBL1145202, “A series of ligands displaying a remarkable agonistic-antagonistic profile at the adenosine A1 receptor” (J Med Chem, 2005).
# Columns and labels:
# [1] = target: T1, Adenosine receptor A1 (Homo sapiens) (UniProt P30542); assay: Effect on forskolin-induced cAMP levels at human A1 adenosine receptor compared to CPA (full agonist, 100% inhibition) and DPCPX(full inverse agonist, 100% stimulation); type: functional
# T1 sequence (whole entry): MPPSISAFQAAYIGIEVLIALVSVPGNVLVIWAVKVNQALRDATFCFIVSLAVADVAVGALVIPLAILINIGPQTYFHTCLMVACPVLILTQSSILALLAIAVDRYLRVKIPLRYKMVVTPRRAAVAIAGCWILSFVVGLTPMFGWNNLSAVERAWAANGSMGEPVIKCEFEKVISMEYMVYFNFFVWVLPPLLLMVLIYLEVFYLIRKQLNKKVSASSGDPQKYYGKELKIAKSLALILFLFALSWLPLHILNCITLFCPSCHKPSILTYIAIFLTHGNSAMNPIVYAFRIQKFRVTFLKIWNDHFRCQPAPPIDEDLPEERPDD
# [2] = target: Adenosine receptor A2a (Homo sapiens) (UniProt P29274); assay: Percent displacement of [3H]-ZM 241385 binding to human adenosine A2A receptor expressed in CHO cells at 1 uM; type: cell-based
# [3] = target: T2, Adenosine receptor A3 (Homo sapiens) (UniProt P0DMS8); assay: Percent displacement of [125I]AB-MECA binding to human adenosine A3 receptor expressed in HEK 293 cells at 1 uM; type: cell-based; conditions: HEK293
# T2 sequence (whole entry): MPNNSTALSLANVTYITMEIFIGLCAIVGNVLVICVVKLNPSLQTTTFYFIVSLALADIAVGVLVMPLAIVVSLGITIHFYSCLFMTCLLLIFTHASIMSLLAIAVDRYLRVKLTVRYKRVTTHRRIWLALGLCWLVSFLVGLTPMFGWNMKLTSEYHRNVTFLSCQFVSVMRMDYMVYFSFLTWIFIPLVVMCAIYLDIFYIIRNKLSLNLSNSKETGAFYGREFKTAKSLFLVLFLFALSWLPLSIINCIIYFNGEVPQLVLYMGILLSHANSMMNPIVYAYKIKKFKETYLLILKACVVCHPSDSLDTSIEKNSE
# Adenosine receptor A1 = target: T3, Adenosine receptor A1 (Homo sapiens, UniProt P30542); assay: biochemical
# T3 sequence (P30542 whole entry): T1 sequence (whole entry)
# Description: Displacement of [3H]DPCPX binding to human adenosine A1 receptor expressed in CHO cells
# [4] = target: T1, Adenosine receptor A1 (Homo sapiens); assay: Percent displacement of [3H]DPCPX binding to human adenosine A1 receptor expressed in CHO cells at 1 uM; type: cell-based
# Adenosine receptor A2a (Homo sapiens), sequence (P29274 whole entry): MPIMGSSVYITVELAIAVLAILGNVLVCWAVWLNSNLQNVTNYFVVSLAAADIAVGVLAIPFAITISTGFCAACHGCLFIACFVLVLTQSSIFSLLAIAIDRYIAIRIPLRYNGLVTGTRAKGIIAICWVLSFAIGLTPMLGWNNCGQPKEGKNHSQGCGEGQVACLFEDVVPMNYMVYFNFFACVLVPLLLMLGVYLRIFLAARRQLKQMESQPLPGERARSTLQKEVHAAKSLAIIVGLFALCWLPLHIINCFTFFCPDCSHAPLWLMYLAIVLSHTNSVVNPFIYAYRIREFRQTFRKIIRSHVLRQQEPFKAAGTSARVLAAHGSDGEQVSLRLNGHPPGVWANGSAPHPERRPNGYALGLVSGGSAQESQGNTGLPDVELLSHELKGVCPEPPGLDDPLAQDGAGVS
SMILES,Change in cAMP [1] [%],Displacement [2] [%],Displacement [3] [%],Ki (Adenosine receptor A1) [nM],Displacement [4] [%]
N#Cc1c(N)nc(SCCO)c(C#N)c1-c1cccc(OC(F)(F)F)c1,80,3,11,30,–
N#Cc1c(N)nc(SCCO)c(C#N)c1-c1ccc2c(c1)OCO2,-111,33,13,11,–
N#Cc1c(N)nc(SCCO)c(C#N)c1-c1ccccc1,-72,23,26,15,–
N#Cc1c(N)nc(SCCO)c(C#N)c1-c1cccc(F)c1,-102,19,8,40,–
N#Cc1c(N)nc(SCCO)c(C#N)c1-c1cccc(O)c1,-105,25,16,12,–
COc1cccc(-c2c(C#N)c(N)nc(SCCO)c2C#N)c1,-58,21,18,4.3,–
COc1ccc(-c2c(C#N)c(N)nc(SCCO)c2C#N)cc1OC,–,25,0,–,25
Cc1cccc(-c2c(C#N)c(N)nc(SCCO)c2C#N)c1,-78,29,5,81,–
COc1ccc(-c2c(C#N)c(N)nc(SCCO)c2C#N)cc1,-16,8,21,41,–
N#Cc1c(N)nc(SCCO)c(C#N)c1-c1ccc(OC(F)F)cc1,4,0,23,34,–
OC[C@H]1O[C@@H](n2cnc3c(NC4CCCC4)ncnc32)[C@H](O)[C@@H]1O,-100,–,–,–,–
Cn1cnc2c(NC3CCCC3)ncnc21,72,–,15,1080,–
CCCn1c(=O)c2[nH]c(C3CCCC3)nc2n(CCC)c1=O,100,–,–,–,–
N#Cc1c(N)nc(SCCO)c(C#N)c1-c1cccc(OC(F)F)c1,6,8,12,40,–
CN(C)c1ccc(-c2c(C#N)c(N)nc(SCCO)c2C#N)cc1,-65,0,7,245,–

# Now from value to molecule:
Change in cAMP [1] [%],Displacement [2] [%],Displacement [3] [%],Ki (Adenosine receptor A1) [nM],Displacement [4] [%],SMILES
-51,4,0,81,–,N#Cc1c(N)nc(SCCO)c(C#N)c1-c1ccc(F)cc1
-93,37,0,23,–,N#Cc1c(N)nc(SCCO)c(C#N)c1-c1ccc(O)cc1
12,0,10,156,–,N#Cc1c(N)nc(SCCO)c(C#N)c1-c1ccc(OC(F)(F)F)cc1
85,22,49,14,–,N#Cc1c(N)nc(SCCO)c(C#N)c1-c1cccc(C(F)(F)F)c1
-16,20,0,49,–,Cc1ccc(-c2c(C#N)c(N)nc(SCCO)c2C#N)cc1
48,13,0,150,–,N#Cc1c(N)nc(SCCO)c(C#N)c1-c1ccc(C(F)(F)F)cc1
